Measured values: patent US9963462B2 (priority 2015, dated 2018)

Key:
[1] = molecular target: SNAP-hSPR (sepiapterin reductase, SPR) (Homo sapiens, UniProt P35270); experiment: biochemical; type: binding; details: terbium labelled SNAP-hSPR / SSZ labelled SNAP-EGFP; read-out: hTR-FRET IC50
[2] = system: BH4 levels in SK-N-BE (2) cells; experiment: SKN-N-BE (2) cellular assay, BH4 levels by LC-MS; type: cell-based; details: Homo sapiens, SKNBE2, read-out: SK-N-BE(2) IC50, SK-N-BE (2) cells, BH4 levels by LC-MS
[3] = system: BH4 production in human peripheral blood mononuclear cells (PBMCs); experiment: hPBMC assay, inhibition of BH4 production by LC-MS (anti-CD3/anti-CD28 stimulated); type: cell-based; details: PBMC, read-out: hPBMC IC50
Description: hPBMC Assay: PBMCs were either purchased or isolated from fresh human blood and used either as a fresh preparation or frozen for later use. The assay system was prepared by pre-treating the assay plates overnight with a solution containing anti-human CD3 antibody. Human PBMCs were suspended in assay medium and plated into the assay plates at a density of 1-4×10^5 cells per well. The desired concentration of the test compound was added to each well. A solution of human anti-CD28 antibody was also added to each well. Plates were incubated for 12-48 hours at 37° C. and 5% CO2. Assay plates were centrifuged for 5-15 minutes at 1-3000 RMP and supernatants were removed. The cells were lysed, sealed and used directly or frozen at −80° C. LC-MS was used to quantify the amount of inhibition of BH4 production.
PBMCs were either purchased or isolated from fresh human blood and used either as a fresh preparation or frozen for later use. The assay system was prepared by pre-treating the assay plates overnight with a solution containing anti-human CD3 antibody. Human PBMCs were suspended in assay medium and plated into the assay plates at a density of 1-4×10^5 cells per well. The desired concentration of the test compound was added to each well. A solution of human anti-CD28 antibody was also added to each well. Plates are incubated for 12-48 hours at 37° C. and 5% CO2. Assay plates were centrifuged for 5-15 minutes at 1-3000 RMP and supernatants were removed. The cells were lysed, sealed and used directly or frozen at −80° C.

Chain of SNAP-hSPR (sepiapterin reductase, SPR) (P35270 whole entry): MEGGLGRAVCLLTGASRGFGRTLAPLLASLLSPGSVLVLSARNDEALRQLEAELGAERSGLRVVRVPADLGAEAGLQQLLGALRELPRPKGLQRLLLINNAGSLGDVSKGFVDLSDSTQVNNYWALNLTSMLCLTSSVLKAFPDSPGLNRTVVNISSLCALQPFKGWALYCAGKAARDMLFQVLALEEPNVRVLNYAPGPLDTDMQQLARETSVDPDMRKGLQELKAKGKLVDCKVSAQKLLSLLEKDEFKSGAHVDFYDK

Row | Structure (SMILES) | IC50 [1] [nM] | IC50 [2] [nM] | IC50 [3] [nM]
1 | Cc1c(C(=O)N2CC(c3ccc(F)c(F)c3)C2)cnn1-c1nn2cccc2c(=O)[nH]1 [Q-0771] | 1 | 200 | –
2 | Cc1c(C(=O)N2C[C@@H]3CN(C(=O)OC(C)(C)C)[C@@H]3C2)cnn1-c1nn2cccc2c(=O)[nH]1 [Q-0773] | 6 | 1700 | –
3 | O=C(O)c1cn(-c2nn3cccc3c(=O)[nH]2)nn1 [Q-0774] | 200 | 10000 | –
4 | CCC1(C#N)CCN(C(=O)c2cn(-c3nn4cccc4c(=O)[nH]3)nn2)CC1 [Q-0775] | 2 | 1000 | –
5 | Cc1c(C(=O)O)nnn1-c1nn2cccc2c(=O)[nH]1 [Q-0779] | 20 | 10000 | –
6 | CCOC(=O)c1nnn(-c2nn3cccc3c(=O)[nH]2)c1C [Q-0780] | 1 | 200 | –
7 | O=C(c1cn(-c2nn3cccc3c(=O)[nH]2)nn1)N1CCC(C(F)(F)F)CC1 [Q-0781] | 1 | 200 | –
8 | O=C(c1cnn(-c2nn3cccc3c(=O)[nH]2)c1)N1CCC(OCC(F)(F)F)CC1 [Q-0783] | 2 | 300 | –
9 | Cc1c(C(=O)N2CC3(CCCN3C(=O)OC(C)(C)C)C2)cnn1-c1nn2cccc2c(=O)[nH]1 [Q-0785] | 1 | 200 | –
10 | Cc1c(C(=O)N2CC[C@@H]3CN(C(=O)OC(C)(C)C)[C@@H]3C2)cnn1-c1nn2cccc2c(=O)[nH]1 [Q-0788] | 10 | 3600 | –
11 | Cc1c(C(=O)N2C[C@@H]3CCN(C(=O)OC(C)(C)C)C[C@@H]32)cnn1-c1nn2cccc2c(=O)[nH]1 [Q-0790] | 7 | 1400 | –
12 | Cc1c(C(=O)N2CC3CC2C3)cnn1-c1nn2cccc2c(=O)[nH]1 [Q-0791] | 2 | 600 | –
13 | Cc1c(C(=O)N2CCC3(CC2)COC3)cnn1-c1nn2cccc2c(=O)[nH]1 [Q-0793] | 3 | 1000 | –
14 | Cc1c(C(=O)N2CCC3(CC2)OCCO3)cnn1-c1nn2cccc2c(=O)[nH]1 [Q-0795] | 2 | 500 | –
15 | Cc1c(C(=O)N2CC3CC(F)(F)CC3C2)cnn1-c1nn2cccc2c(=O)[nH]1 (stereo not drawn) [Q-0796] | 1 | 200 | –
16 | Cc1c(C(=O)N2CCN(C(=O)OC(C)(C)C)CC23CCC3)cnn1-c1nn2cccc2c(=O)[nH]1 [Q-0798] | 2 | 300 | –
17 | Cc1c(C(=O)N2CC3CC(C2)C3(F)F)cnn1-c1nn2cccc2c(=O)[nH]1 [Q-0799] | 1 | 300 | –
18 | Cc1c(C(=O)N2CCN(c3ccccc3)CC2)cnn1-c1nn2cccc2c(=O)[nH]1 [Q-0802] | 1 | 67 | –
19 | Cc1c(C(=O)N2CCC(O)(C(F)(F)F)CC2)cnn1-c1nn2cccc2c(=O)[nH]1 [Q-0803] | 1 | 200 | –
20 | Cc1c(C(=O)N2CC3(C2)CC(O)(C(F)(F)F)C3)cnn1-c1nn2cccc2c(=O)[nH]1 [Q-0805] | 4 | 2300 | –
21 | Cc1c(C(=O)N2CC3[C@@H](C2)CN3C(=O)OC(C)(C)C)cnn1-c1nn2cccc2c(=O)[nH]1 (stereo partly drawn) [Q-0806] | 3 | 1200 | –
22 | Cc1c(C(=O)N2CC3C(C2)C3(F)F)cnn1-c1nn2cccc2c(=O)[nH]1 (stereo not drawn) [Q-0807] | 2 | 400 | –

Row | Structure (SMILES) | IC50 [1] [nM] | IC50 [2] [nM] | IC50 [3] [nM]
23 | Cc1c(C(=O)N2CCC3(CCCC3)C2)cnn1-c1nn2cccc2c(=O)[nH]1 [Q-0808] | 1 | 200 | –
24 | Cc1c(C(=O)N2CC3CN(C(=O)OC(C)(C)C)CC3C2)cnn1-c1nn2cccc2c(=O)[nH]1 (stereo not drawn) [Q-0809] | 6 | 900 | –
25 | Cc1c(C(=O)N2CC(O)(C3CC3)C2)cnn1-c1nn2cccc2c(=O)[nH]1 [Q-0814] | 2 | 400 | –
26 | Cc1c(C(=O)N2CC(N3CCC(F)(F)CC3)C2)cnn1-c1nn2cccc2c(=O)[nH]1 [Q-0818] | 2 | 900 | –
27 | Cc1c(C(=O)N2CCCC3(CC3)C2)cnn1-c1nn2cccc2c(=O)[nH]1 [Q-0819] | 1 | 200 | –
28 | Cc1c(C(=O)N2CCN(C(=O)OC(C)(C)C)C3(CCC3)C2)cnn1-c1nn2cccc2c(=O)[nH]1 [Q-0820] | 1 | 40 | –
29 | Cc1c(C(=O)N2CCN(c3ccc(F)cc3)CC2)cnn1-c1nn2cccc2c(=O)[nH]1 [Q-0823] | 1 | 66 | –
30 | Cc1c(C(=O)N2CC3CC(=O)CC3C2)cnn1-c1nn2cccc2c(=O)[nH]1 (stereo not drawn) [Q-0824] | 5 | 1800 | –
31 | CCC(C#N)C1CCN(C(=O)c2cnn(-c3nn4cccc4c(=O)[nH]3)c2C)CC1 (stereo not drawn) [Q-0826] | 1 | 100 | –
32 | Cc1c(C(=O)N2CCN(c3ccc(Cl)cc3)CC2)cnn1-c1nn2cccc2c(=O)[nH]1 [Q-0827] | 2 | 65 | –
33 | Cc1c(C(=O)N2CCN(c3ccc(Cl)c(Cl)c3)CC2)cnn1-c1nn2cccc2c(=O)[nH]1 [Q-0828] | 4 | 50 | –
34 | Cc1c(C(=O)N2CCN(c3ccc(C#N)cc3)CC2)cnn1-c1nn2cccc2c(=O)[nH]1 [Q-0829] | 1 | 80 | –
35 | Cc1c(C(=O)N2CCN(c3cccc(Cl)c3)CC2)cnn1-c1nn2cccc2c(=O)[nH]1 [Q-0830] | 1 | 41 | –
36 | Cc1c(C(=O)N2CCN(c3cnccn3)CC2)cnn1-c1nn2cccc2c(=O)[nH]1 [Q-0831] | 2 | 400 | –
37 | Cc1c(C(=O)N2CCC(C(F)(F)F)CC2)nnn1-c1nn2cccc2c(=O)[nH]1 [Q-0832] | 1 | 200 | –
38 | Cc1c(C(=O)N2CCN(c3ccc(C(F)(F)F)cc3)CC2)cnn1-c1nn2cccc2c(=O)[nH]1 [Q-0833] | 6 | 200 | –
39 | CCOC(=O)c1cn(-c2nn3cccc3c(=O)[nH]2)nn1 [Q-0839] | 8 | 1500 | –
40 | Cc1c(C(=O)N2CCN(c3cccc(C(F)(F)F)c3)CC2)cnn1-c1nn2cccc2c(=O)[nH]1 [Q-0840] | 3 | 200 | –
41 | Cc1c(C(=O)N2C[C@H]3CN(C(=O)OC(C)(C)C)C[C@H]32)cnn1-c1nn2cccc2c(=O)[nH]1 [Q-0842] | 2 | 700 | –
42 | Cc1c(C(=O)N2CCN(c3ccccn3)CC2)cnn1-c1nn2cccc2c(=O)[nH]1 [Q-0843] | 1 | 200 | –
43 | Cc1c(C(=O)N2CCC3C(C2)C3C(F)(F)F)cnn1-c1nn2cccc2c(=O)[nH]1 (stereo not drawn) [Q-0844] | 1 | 200 | –
44 | Cc1c(C(=O)N2CCN(c3ccc(C#N)cn3)CC2)cnn1-c1nn2cccc2c(=O)[nH]1 [Q-0845] | 3 | 400 | –

Row | Structure (SMILES) | IC50 [1] [nM] | IC50 [2] [nM] | IC50 [3] [nM]
45 | Cc1c(C(=O)N2CC3CN(c4ccccc4)CC3C2)cnn1-c1nn2cccc2c(=O)[nH]1 (stereo not drawn) [Q-0846] | 2 | 200 | –
46 | Cc1c(C(=O)N2CC3CN(C)CC3C2)cnn1-c1nn2cccc2c(=O)[nH]1 (stereo not drawn) [Q-0847] | 20 | 8800 | –
47 | Cc1c(C(=O)N2CCC3(CCNC3=O)CC2)cnn1-c1nn2cccc2c(=O)[nH]1 [Q-0848] | 2 | 10000 | –
48 | Cc1c(C(=O)N2CCC(NC(=O)OC(C)(C)C)(C(F)(F)F)C2)cnn1-c1nn2cccc2c(=O)[nH]1 (stereo not drawn) [Q-0852] | 2 | 800 | –
49 | Cc1c(C(=O)N2CCn3cnnc3C2)cnn1-c1nn2cccc2c(=O)[nH]1 [Q-0853] | 30 | 10000 | –
50 | Cc1c(C(=O)N2C3CCC2CN(c2ccc(C(F)(F)F)cn2)C3)cnn1-c1nn2cccc2c(=O)[nH]1 [Q-0854] | 3 | 200 | –
51 | Cc1c(C(=O)N2CCC(C(C#N)C3CC3)CC2)cnn1-c1nn2cccc2c(=O)[nH]1 (stereo not drawn) [Q-0855] | 1 | 100 | –
52 | Cc1c(C(=O)N2CCN3CCC[C@H]3C2)cnn1-c1nn2cccc2c(=O)[nH]1 [Q-0856] | 4 | 1100 | –
53 | Cc1c(C(=O)N2C[C@@H]3CN(C(=O)OC(C)(C)C)C[C@@H]32)cnn1-c1nn2cccc2c(=O)[nH]1 [Q-0857] | 3 | 800 | –
54 | Cc1c(C(=O)N2CCn3c(nnc3C(F)(F)F)C2)cnn1-c1nn2cccc2c(=O)[nH]1 [Q-0859] | 20 | 8300 | –
55 | Cc1c(C(=O)N2CCC3(CC2)CC3C(=O)N2CCOCC2)cnn1-c1nn2cccc2c(=O)[nH]1 (stereo not drawn) [Q-1070] | 2 | – | 200
56 | Cc1c(C(=O)N2CCC2c2ccc(Cl)cc2)cnn1-c1nn2cccc2c(=O)[nH]1 (stereo not drawn) [Q-1071] | 6 | – | 32
57 | CC[C@@H](C#N)C1CCN(C(=O)c2cnn(-c3nc4c(c(=O)[nH]3)CCC4)c2C)CC1 [Q-1072] | 2 | – | 55
58 | C=CCC(C#N)C1CCN(C(=O)c2cnn(-c3nc4c(c(=O)[nH]3)CCC4)c2C)CC1 (stereo not drawn) [Q-1073] | 3 | – | 55
59 | Cc1c(C(=O)N2CCC(c3noc(C(F)(F)F)n3)CC2)cnn1-c1nn2cccc2c(=O)[nH]1 [Q-1074] | 1 | – | 22
60 | Cc1c(C(=O)N2CCC(c3noc(C(F)(F)F)n3)CC2)cnn1-c1nc2c(c(=O)[nH]1)CCC2 [Q-1075] | 2 | – | 17
61 | Cc1c(C(=O)N2CCC(c3nccs3)CC2)cnn1-c1nc2c(c(=O)[nH]1)CCC2 [Q-1076] | 1 | – | 35
62 | Cc1c(C(=O)N2CCC3(CC2)CC3C(=O)N2CCOCC2)cnn1-c1nc2c(c(=O)[nH]1)CCC2 (stereo not drawn) [Q-1077] | 5 | – | 160
63 | Cc1c(C(=O)N2CCc3nc(C(F)(F)F)sc3C2)cnn1-c1nn2cccc2c(=O)[nH]1 [Q-1078] | 5 | – | 36
64 | Cc1c(C(=O)N2CCC(c3nc(-c4ccccc4)co3)CC2)cnn1-c1nc2c(c(=O)[nH]1)CCC2 [Q-1079] | 3 | – | 74
65 | Cc1c(C(=O)N2CCC(c3nc(-c4ccccc4)co3)CC2)cnn1-c1nn2cccc2c(=O)[nH]1 [Q-1080] | 2 | – | 25
66 | Cc1c(C(=O)N2CC3CCCC(C2)N3CC(F)(F)F)cnn1-c1nc2c(c(=O)[nH]1)CCC2 [Q-1081] | 2 | – | 130
